Assay results taken from PMC13308190, “Endothelial progenitor cell susceptibility to DNA damaging and DDR-modulating compounds determines endothelial differentiation accuracy” (Stem Cell Research & Therapy, 2026).

Columns and labels:
Format in all cases: cell-based, mouse
[1] = tested on: mESC; assay: RT-qPCR mRNA expression; details: for Cdkn1a mRNA / Cdkn2a mRNA / Glb1 mRNA / Il6 mRNA / Il8 mRNA / Tp53 mRNA: Fig 7A; for Brca1 mRNA / Chk1 mRNA / Rad51 mRNA / Pgc1a mRNA: mESC + 20 µM 24 h; for Brca1 mRNA / Chk1 mRNA / Rad51 mRNA: Fig 5C; for Pgc1a mRNA: Fig 6D
Description: (§1) Total RNA was purified using the RNeasy Mini Kit (Qiagen, Hilden, Germany). Reverse transcriptase (RT) reaction was performed with the HighCapacity cDNA Reverse Transcription Kit (Applied Biosystems, Darmstadt, Germany) using 900–2000 ng of RNA. Quantitative RT-qPCR analysis was performed using following conditions: (1) 95 °C–10 min; (2) 45 amplification cycles with 95 °C–15 s, 55 °C–15 s, and 72 °C–17 s; (3) 95 °C–1 min, 55 °C–1 min, 65 °C–5 s. If not stated otherwise, analyses were performed in technical triplicates using pooled samples from two independent experiments (each performed with biological duplicates) by use of a CFX96 cycler (BioRad) and the SensiMix SYBR Kit (Bioline, London, UK). The primers used for mRNA expression analyses are listed in Supplementary Table 1. To ensure the specificity of the amplification product, melting curves were recorded at the end of the run. mRNA expression levels were normalized to β-Actin and Gapdh. Relative mRNA expression in mESC or corresponding untreated controls was set to 1.0. Only changes in gene expression of ≤ 0.5- and ≥ 2-fold were considered as biologically relevant. Fold-changes in gene expression are summarized in Supplementary Table 2.

[2] = tested on: EC d6 (endothelial-like cells); assay: Western blot protein expression (densitometry); details: EC d6 24 h; for H3ac protein / H4ac protein / aTubac (acetylated α-Tubulin) protein: Fig 1D; for CHK1 protein / RAD51 protein / gH2AX protein / p-CHK2 protein / p-KAP1 protein / p-RPA32 protein / p-p53 protein: Fig 5D; for AMPKa protein / GSK3b protein / p-p70SK protein: Fig 6E
Description: Total protein cell extracts were obtained upon sonication in RIPA buffer (EpiShearTM Probe sonicator, Active Motif [La Hulpe, Belgium]). Protein concentrations were determined using the DC Protein Assay (BioRad [Munich, Germany]). Extracts were supplemented with Roti®-Load buffer (Carl Roth GmbH [Karlsruhe, Germany]) followed by heating (95 °C for 5 min). 20 µg of protein was separated by SDS-PAGE and transferred onto nitrocellulose membrane. After blocking (5% non-fat milk in TBS/0.1% Tween 20 or 5% BSA in TBS/0.1% Tween 20) (1 h, RT) membrane was incubated with primary antibodies (1:500–5000; overnight, 4 °C). After washing with TBS/0.1% Tween 20, peroxidase-conjugated secondary antibody (1:2000) was added (2 h, RT) and bands were visualized using ChemiDoxTM Touch imaging system (BioRad, Munich, Germany).

[3] = tested on: EC d6 (endothelial-like cells); assay: RT-qPCR mRNA expression; details: for Cdkn1a mRNA / Cdkn2a mRNA / Glb1 mRNA / Il6 mRNA / Il8 mRNA / Tp53 mRNA: Fig 7C; for Brca1 mRNA / Chk1 mRNA / Rad51 mRNA / Pgc1a mRNA / Cldn5 mRNA / Ocln mRNA / Tjp1 mRNA: EC d6 + 20 µM 24 h; for Brca1 mRNA / Chk1 mRNA / Rad51 mRNA: Fig 5C; for Pgc1a mRNA: Fig 6D; for Cldn5 mRNA / Ocln mRNA / Tjp1 mRNA: Fig 8C
Description: as §1, with “relevant.” for “relevant. Fold-changes in gene expression are summarized in Supplementary Table 2.”

[4] = tested on: EC d4; assay: EdU incorporation (S-phase activity); details: EC d4 48 h
Description: S-phase activity of cells was monitored by measuring EdU incorporation using the EdU-Click 488 assay according to the manufacturer’s protocol. Briefly, cells were pulse-treated with 5-ethynyl-2′-deoxyuridine (EdU) for 3 h. Alexa Fluor 488-conjugated reaction cocktail was added (30 min, RT) and nuclei were counterstained with DAPI. The percentage of EdU-positive area/DAPI-positive area was calculated by fluorescence microscopy (Olympus BX43, 20x objective).

[5] = mESC + 10 µM 24 h + 24 h post incubation
[6] = mESC + 20 µM 24 h + 24 h post incubation
[7] = concentration 1 (Dox 1/B02 1/EST 1)
[8] = concentration 2 (Dox 2/B02 2/EST 2)
[9] = EC d6 + 10 µM 24 h + 24 h post incubation
[10] = EC d6 + 20 µM 24 h + 24 h post incubation

## O=c1c2ccccc2nc(/C=C/c2cccnc2)n1Cc1ccccc1 [B02]
[1]; [5]
  Cdkn1a mRNA: 0.89 Fold of untreated control
  Cdkn2a mRNA: 0.97 Fold of untreated control
  Glb1 mRNA: 1.06 Fold of untreated control
  Il6 mRNA: 0.98 Fold of untreated control
  Il8 mRNA: 0.76 Fold of untreated control
  Tp53 mRNA: 1.09 Fold of untreated control
[1]; [6]
  Cdkn1a mRNA: 0.94 Fold of untreated control
  Cdkn2a mRNA: 0.89 Fold of untreated control
  Glb1 mRNA: 1.06 Fold of untreated control
  Il6 mRNA: 1.35 Fold of untreated control
  Il8 mRNA: 0.93 Fold of untreated control
  Tp53 mRNA: 0.98 Fold of untreated control
[1]
  Brca1 mRNA: 0.95 Fold of mESC
  Chk1 mRNA: 1.33 Fold of mESC
  Rad51 mRNA: 0.90 Fold of mESC
  Pgc1a mRNA: 2.40 Fold of untreated control
[2]
  H3ac protein: 0.1 Fold of mESC
  H4ac protein: 0.0 Fold of mESC
  aTubac (acetylated α-Tubulin) protein: 0.3 Fold of mESC
  AMPKa protein: 0.1 Fold of mESC
  GSK3b protein: 1.8 Fold of mESC
  p-p70SK protein: 1.1 Fold of mESC
[2]; [7]
  CHK1 protein: 0.7 Fold of mESC
  RAD51 protein: 0.7 Fold of mESC
  gH2AX protein: 1.2 Fold of mESC
  p-CHK2 protein: 0.1 Fold of mESC
  p-KAP1 protein: 0.0 Fold of mESC
  p-RPA32 protein: 0.1 Fold of mESC
  p-p53 protein: 0.4 Fold of mESC
[2]; [8]
  CHK1 protein: 0.1 Fold of mESC
  RAD51 protein: < 0.1 Fold of mESC
  gH2AX protein: 0.1 Fold of mESC
  p-CHK2 protein: 0.0 Fold of mESC
  p-KAP1 protein: 0.0 Fold of mESC
  p-RPA32 protein: < 0.1 Fold of mESC
  p-p53 protein: 0.2 Fold of mESC
[3]; [9]
  Cdkn1a mRNA: 1.67 Fold of untreated control
  Cdkn2a mRNA: 0.64 Fold of untreated control
  Glb1 mRNA: 0.88 Fold of untreated control
  Il6 mRNA: 0.85 Fold of untreated control
  Il8 mRNA: 0.52 Fold of untreated control
  Tp53 mRNA: 0.97 Fold of untreated control
[3]; [10]
  Cdkn1a mRNA: 2.28 Fold of untreated control
  Cdkn2a mRNA: 1.15 Fold of untreated control
  Glb1 mRNA: 1.64 Fold of untreated control
  Il6 mRNA: 1.79 Fold of untreated control
  Il8 mRNA: 0.32 Fold of untreated control
  Tp53 mRNA: 1.27 Fold of untreated control
[3]
  Brca1 mRNA: 0.51 Fold of mESC
  Chk1 mRNA: 1.27 Fold of mESC
  Rad51 mRNA: 0.34 Fold of mESC
  Pgc1a mRNA: 0.27 Fold of untreated control
  Cldn5 mRNA: 4.85 Fold of EC d4 or d6
  Ocln mRNA: 1.87 Fold of EC d4 or d6
  Tjp1 mRNA: 1.07 Fold of EC d4 or d6
[4]
  S-phase activity (EdU-positive cells): decrease in S-phase activity

## Nc1ccccc1NC(=O)c1ccc(CNC(=O)OCc2cccnc2)cc1 [EST, entinostat]
[1]; [5]
  Cdkn1a mRNA: 2.08 Fold of untreated control
  Cdkn2a mRNA: 5.82 Fold of untreated control
  Glb1 mRNA: 0.47 Fold of untreated control
  Il6 mRNA: 6.25 Fold of untreated control
  Il8 mRNA: 0.83 Fold of untreated control
  Tp53 mRNA: 0.83 Fold of untreated control
[1]
  Brca1 mRNA: 0.52 Fold of mESC
  Chk1 mRNA: 0.27 Fold of mESC
  Rad51 mRNA: 0.29 Fold of mESC
  Pgc1a mRNA: 184.58 Fold of untreated control
[2]
  H3ac protein: 7.8 Fold of mESC
  H4ac protein: 4083.7 Fold of mESC
  aTubac (acetylated α-Tubulin) protein: 1.0 Fold of mESC
  AMPKa protein: 0.7 Fold of mESC
  GSK3b protein: 1.7 Fold of mESC
  p-p70SK protein: 0.7 Fold of mESC
[2]; [7]
  CHK1 protein: 0.6 Fold of mESC
  RAD51 protein: 0.6 Fold of mESC
  gH2AX protein: 1.3 Fold of mESC
  p-CHK2 protein: 0.5 Fold of mESC
  p-KAP1 protein: 0.0 Fold of mESC
  p-RPA32 protein: < 0.1 Fold of mESC
  p-p53 protein: 0.3 Fold of mESC
[2]; [8]
  CHK1 protein: 0.2 Fold of mESC
  RAD51 protein: 0.1 Fold of mESC
  gH2AX protein: 0.1 Fold of mESC
  p-CHK2 protein: 0.3 Fold of mESC
  p-KAP1 protein: 0.0 Fold of mESC
  p-RPA32 protein: < 0.1 Fold of mESC
  p-p53 protein: 0.3 Fold of mESC
[3]; [9]
  Cdkn1a mRNA: 1.91 Fold of untreated control
  Cdkn2a mRNA: 1.85 Fold of untreated control
  Glb1 mRNA: 3.60 Fold of untreated control
  Il6 mRNA: 1.19 Fold of untreated control
  Il8 mRNA: 0.24 Fold of untreated control
  Tp53 mRNA: 0.82 Fold of untreated control
[3]; [10]
  Cdkn1a mRNA: 2.49 Fold of untreated control
  Cdkn2a mRNA: 2.02 Fold of untreated control
  Glb1 mRNA: 5.40 Fold of untreated control
  Il6 mRNA: 2.47 Fold of untreated control
  Il8 mRNA: 0.48 Fold of untreated control
  Tp53 mRNA: 0.96 Fold of untreated control
[3]
  Brca1 mRNA: 0.19 Fold of mESC
  Chk1 mRNA: 0.44 Fold of mESC
  Rad51 mRNA: 0.11 Fold of mESC
  Pgc1a mRNA: 5.75 Fold of untreated control
  Cldn5 mRNA: 2.16 Fold of EC d4 or d6
  Ocln mRNA: 1.62 Fold of EC d4 or d6
  Tjp1 mRNA: 1.46 Fold of EC d4 or d6
[4]
  S-phase activity (EdU-positive cells): not
